Results from PMC12067350, “Discovery of Thieno[3,2‑b]pyridine-5-carboxamide and 2,3-Difluorobenzamide Negative Allosteric Modulators of Metabotropic Glutamate Receptor Subtype 5” (ACS Medicinal Chemistry Letters, 2025).
“Also recorded” adds a separate entry of the source. Read-outs that look alike come from different tables or passages of the source.

Key:
human mGlu5 [1] = biological target: T1, human mGlu5 (Homo sapiens, UniProt P41594); test: Calcium mobilization assay in human mGlu5-HEK293A cells (NAM, EC80 glutamate); assay type: cell-based; conditions: for %Glumin: efficacy of the NAM to reduce an EC80 response of glutamate
T1 construct: expressed in transfected cells
T1 sequence (P41594 21-1212): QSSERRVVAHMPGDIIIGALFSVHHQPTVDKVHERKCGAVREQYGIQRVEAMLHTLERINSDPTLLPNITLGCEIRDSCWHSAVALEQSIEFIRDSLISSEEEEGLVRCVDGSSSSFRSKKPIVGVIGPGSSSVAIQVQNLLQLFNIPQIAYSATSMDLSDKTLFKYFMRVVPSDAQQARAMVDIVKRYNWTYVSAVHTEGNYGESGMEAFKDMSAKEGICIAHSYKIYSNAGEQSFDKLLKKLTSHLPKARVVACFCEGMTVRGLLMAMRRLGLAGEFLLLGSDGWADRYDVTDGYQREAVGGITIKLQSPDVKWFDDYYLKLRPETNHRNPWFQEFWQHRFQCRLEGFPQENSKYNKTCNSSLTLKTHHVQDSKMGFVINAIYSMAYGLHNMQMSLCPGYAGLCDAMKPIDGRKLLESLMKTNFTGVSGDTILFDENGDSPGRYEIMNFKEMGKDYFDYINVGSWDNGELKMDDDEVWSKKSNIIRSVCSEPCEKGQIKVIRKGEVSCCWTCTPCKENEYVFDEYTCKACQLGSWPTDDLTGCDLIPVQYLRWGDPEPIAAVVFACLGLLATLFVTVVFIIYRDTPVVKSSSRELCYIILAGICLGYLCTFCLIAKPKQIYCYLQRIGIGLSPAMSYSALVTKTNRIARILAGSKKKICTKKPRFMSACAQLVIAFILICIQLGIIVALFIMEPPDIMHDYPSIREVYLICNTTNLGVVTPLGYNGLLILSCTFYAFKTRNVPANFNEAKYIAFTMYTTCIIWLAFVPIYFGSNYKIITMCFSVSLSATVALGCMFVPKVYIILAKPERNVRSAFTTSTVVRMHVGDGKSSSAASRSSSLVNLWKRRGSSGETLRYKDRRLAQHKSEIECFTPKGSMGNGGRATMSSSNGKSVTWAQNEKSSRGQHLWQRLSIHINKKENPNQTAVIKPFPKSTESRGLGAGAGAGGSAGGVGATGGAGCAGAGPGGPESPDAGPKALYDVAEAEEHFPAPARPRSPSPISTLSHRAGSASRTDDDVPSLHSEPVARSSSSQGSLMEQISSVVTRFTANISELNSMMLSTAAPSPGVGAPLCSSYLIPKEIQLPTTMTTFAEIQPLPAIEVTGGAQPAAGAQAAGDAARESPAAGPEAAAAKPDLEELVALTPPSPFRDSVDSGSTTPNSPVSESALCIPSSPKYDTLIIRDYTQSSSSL

[2] = Intrinsic clearance in rat liver microsomes; assay type: in vitro ADME; conditions: predicted hepatic clearance from in vitro rat microsomal data
Method: Intrinsic Clearance in Rat and Human Liver Microsomes
The in vitro intrinsic clearance (CL int) was investigated in commercially obtained hepatic microsomes from rat and human donors using the substrate depletion (i.e., loss-of-parent vs. time, or t 1/2 method) approach with analyte detection via liquid chromatography-tandem mass spectrometry (LC-MS/MS). For each species, mean %parent remaining values at each time point were calculated from replicates raw data (analyte:IS peak area ratios) and used to determine in vitro t 1/2 and CLint.
Experiments were carried out using a robot-assisted (TECAN model Evo 200). Compound was incubated (1 µM final concentration) in buffer (100 mM potassium phosphate pH 7.4 with 3 mM MgCl2) containing hepatic microsomes (0.5 mg/mL final concentration) from multiple species, discretely, at 37 °C under constant orbital shaking. After 5 minutes (pre-incubation), reactions were initiated by addition of nicotinamide adenine dinucleotide phosphate (NADPH, 1 mM final concentration). At selected time intervals (0, 3, 7, 15, 25, and 45 minutes) post-addition of NADPH, aliquots (50 µL) were taken and placed into a 96-shallow-well plate containing ice cold acetonitrile (150 µL) with carbamazepine (IS, 50 nM). The plates were then centrifuged (3000 rcf at 4 °C) for 10 minutes. The supernatants were transferred to a new 96-shallow-well daughter plate and diluted (1:1 v/v) with water (Milli-Q filtered). The plates were then sealed in preparation for LC-MS/MS analysis (see below).
Raw LC-MS/MS peak area data generated from the assay samples were used to construct natural log-transformed %parent remaining vs. time plots (using t = 0 minute post-NADPH addition sample data as starting point set to 100%). In vitro compound half-life (t 1/2) values were obtained using the following […]
k is the slope from linear regression analysis of the natural log-transformed data (using means from Where all replicates at each time point). Resulting t 1/2 values were then used to calculate hepatic CLint values according to the following equation and with the use of species-specific scale-up factors for liver weight (grams) per total body weight (kg):
CL = 0.693 x 1 mL incubation x 45 mg microsomes x a gram liver
int in vitro t1/2 0.5 mg microsomes 1 gram liver kg body wt aScale-up factors used are 45 (rat) and 20 (human).1
Predicted hepatic clearance (CLhep) was calculated using the following equation: […]
Qh represents hepatic blood flow (mL/min/kg): 21 for human, 70 for rat, and 90 for mouse.

[3] = Binding in plasma from human (equilibrium dialysis); assay type: in vitro ADME; conditions: fraction unbound
Method: Binding in plasma from rat and human.
Determination of compounds’ fraction unbound (f u) in plasma from rat and human was conducted in vitro via equilibrium dialysis using HTDialysis membrane plates. Dialysis membranes (four paired strips per HTD assay) were hydrated as described by the manufacturer and inserted into the HTD plate, which was assembled and prepared for sample addition by the dispensing of blank buffer (DPBS, 100 µL/well) into the ‘top half’ of each membrane-split well. Each compound was diluted into plasma from each species (5 µM final concentration), which was aliquoted in triplicate to the ‘bottom half’ of the prepared HTD plate wells. The HTD plate was sealed and incubated for 6 hours at 37 °C. Following incubation, each well (both top and bottom halves) were transferred (20 µL) to the corresponding wells of a 96-shallow-well (V-bottom) plate. The daughter plates were then matrix-matched (buffer side wells received equal volume of plasma, and plasma side wells received equal volume of buffer), and extraction solution (120 µL; acetonitrile containing 50 nM carbamazepine as IS) was added to all wells of both daughter plates to precipitate protein and extract test article. The plates were then sealed and centrifuged (3500 rcf) for 10 minutes at ambient temperature. Supernatant (60 µL) from each well of the daughter plates was then transferred to the corresponding wells of new daughter plates (96-shallow-well, V bottom) containing water (Milli-Q, 60 µL/well), and the plates were sealed in preparation for LC-MS/MS analysis (see below). fu was calculated as (analyte to IS MS peak area ratio from Trans-buffer side) / (analyte to IS MS peak area ratio from Cis-plasma side). Mean values for each species were calculated from 3 replicates. […]
Mean values for each species were calculated from 3 replicates.

human mGlu5 [4] = biological target: T1, human mGlu5; conditions: previously published picolinamide series; read-out: hmGlu5 IC50; cited from earlier work
[5] = design: method as in PMID 30446311; conditions: cited from earlier work
[6] = cited from earlier work
[7] = rat, cited from earlier work
M1 = system: M1; design: method as in PMID 37101980; conditions: cited from earlier work
[8] = design: method as in PMID 31589885; conditions: led to termination of trials; attributed to off-target MAO-B; cited from earlier work
[9] = design: method as in PMID 28530802; conditions: NHP, 28-day study, AO metabolite accumulated after 14 days, nonmechanism based; cited from earlier work
[10] = literature, cited from earlier work
[11] = human mGlu5-HEK293A cells, EC80 fixed concentration of glutamate, n = 2 in triplicate
[12] = human mGlu5-HEK293A cells, EC80 fixed concentration of glutamate, n = 2 in triplicate, read-out: IC50

%Glumin (human mGlu5 [1]; human mGlu5-HEK293A cells)	pIC50 (human mGlu5 [1]; [11])	IC50 (human mGlu5 [1]; [12])	Structure (SMILES)	further results
2%	7.04	0.093 µM	Cc1csc(NC(=O)c2cc(O[C@@H]3CCOC3)c3ccn(C)c3n2)n1 [19dA]	rat CLhep [2]: 52.3 mL/min/kg; human f u,plasma [3]: 0.006
			Cc1cc(O[C@@H]2CCOC2)cc(C(=O)Nc2ccc(F)cn2)n1 [compound 11]	IC50 (human mGlu5 [4]): 22 nM; predicted hepatic clearance in rat (CLhep) [5]: 51 mL/min/kg; rat brain:plasma K p,uu [6]: 0.79; oral bioavailability (%F) [7]: 5.5%
			Cc1csc(NC(=O)c2cc(OC3CC(C#N)C3)c3sccc3n2)n1 (stereo not shown) [22i]	rat CLhep [2]: 48.2 mL/min/kg; human f u,plasma [3]: 0.005
3%	5.75	1.83 µM	O=C(Nc1nccs1)c1cc(O[C@@H]2CCOC2)c2sccc2n1 [19aK]	
			O=C(NCc1ccc(F)cn1)c1cc(Oc2cccnc2)c2sccc2n1 [compound 13]	M1 PAM (M1): > 30 µM
2%	7.66	0.022 µM	Cc1cccc(NC(=O)c2cc(O[C@@H]3CCOC3)c3sccc3n2)n1 [19aD]	rat CLhep [2]: 57.5 mL/min/kg; human f u,plasma [3]: 0.005
3%	5.88	1.57 µM	O=C(Nc1ccc(F)cn1)c1cc(O[C@@H]2CCOC2)cc(F)c1F [27cB]	IC50 (human mGlu5 [1]; in μM, read-out: hmGlu5 IC50): 1.6 µM
2%	6.76	0.185 µM	Cc1csc(NC(=O)c2cc(OC3COC3)c3sccc3n2)n1 [22e]	
2%	6.08	0.845 µM	Cc1cccc(NC(=O)c2cc(O[C@@H]3CCOC3)c3sccc3n2)c1 [19aE]	
			O=C(Nc1ccc(F)cn1)c1cncc(O[C@@H]2CCOC2)c1 [27bB]	IC50 (nM) (human mGlu5 [1]; [11]): inactive
46%	< 5	> 10 µM	Cn1ccc2nc(C(=O)Nc3ccc(F)cn3)cc(O[C@@H]3CCOC3)c21 [19eB]	
			CN1CC(=O)N=C1NC(=O)Nc1cccc(Cl)c1 [fenobam]	adverse effect in clinical trials [8]: psychosis-like symptoms
66%	< 5	> 10 µM	Cc1nc(NC(=O)c2cc(O[C@@H]3CCOC3)c3sccc3n2)ccc1F [19aG]	
			Cc1csc(NC(=O)c2cc(F)cc(Oc3cncnc3)c2)n1 [VU0409106]	%F ([7]; in vivo): < 5%
2%	7.22	0.061 µM	O=C(Nc1ccc(F)cn1)c1cc(O[C@@H]2CCOC2)c2sccc2n1 [19aB]	rat CLhep [2]: 55.1 mL/min/kg; human f u,plasma [3]: 0.008
2%	6.45	0.357 µM	Cc1csc(NC(=O)c2cc(O[C@@H]3CCOC3)c3sc(C)cc3n2)n1 [19cA]	
			O=C(Nc1ccc(F)cn1)c1cc(O[C@@H]2CCOC2)ncn1 [27eB]	IC50 (nM) (human mGlu5 [1]; [11]): inactive
			Cc1cc(Oc2cncnc2)cc(C(=O)Nc2ccc(F)cn2)n1 [compound 10, N-(5-Fluoropyridin-2-yl)-6-methyl-4-(pyrimidin-5-yloxy)picolinamide]	toxicology finding [9]: pronounced anemia
2%	5.69	2.05 µM	Cc1csc(NC(=O)c2cc(O[C@@H]3CCOC3)c3ccncc3n2)n1 [27gA]	IC50 (human mGlu5 [1]; in μM, read-out: hmGlu5 IC50): 2.1 µM

%Glumin (human mGlu5 [1]; human mGlu5-HEK293A cells)	pIC50 (human mGlu5 [1]; [11])	IC50 (human mGlu5 [1]; [12])	Structure (SMILES)	further results
12%	6.17	0.682 µM	CO[C@@H](C)COc1cc(C(=O)Nc2nc(C)cs2)nc2ccsc12 [22g]	
73%	< 5	> 10 µM	Cc1nsc(NC(=O)c2cc(O[C@@H]3CCOC3)c3sccc3n2)n1 [19aQ]	
6%	6.74	0.192 µM	Cc1csc(NC(=O)c2cc(O[C@@H]3CCOC3)c3ccccc3n2)n1 [19fA]	
			Cc1csc(NC(=O)c2cc(O[C@@H]3CCOC3)cnn2)n1 [27aA]	IC50 (nM) (human mGlu5 [1]; [11]): inactive
			Cc1csc(NC(=O)c2cc(OC3CC(C)(C)OC3(C)C)c3sccc3n2)n1 (stereo not shown) [22b]	IC50 (nM) (human mGlu5 [1]; [11]): inactive
6%	5.62	2.56 µM	CCc1csc(NC(=O)c2cc(O[C@@H]3CCOC3)c3sccc3n2)n1 [19aH]	
15%	5.59	2.65 µM	O=C(Nc1ccc(F)cn1)c1cc(O[C@@H]2CCOC2)c2ccccc2n1 [19fB]	
2%	6.98	0.107 µM	Cc1csc(NC(=O)c2cc(OC3CSC3)c3sccc3n2)n1 [22j]	rat CLhep [2]: 68.4 mL/min/kg; human f u,plasma [3]: 0.001
50%	< 5	> 10 µM	Cc1coc(NC(=O)c2cc(O[C@@H]3CCOC3)c3sccc3n2)n1 [19aP]	
18%	6.50	0.32 µM	O=C(Nc1nc(C(F)F)cs1)c1cc(O[C@@H]2CCOC2)c2sccc2n1 [19aM]	
3%	5.76	1.78 µM	O=C(Nc1ccc(F)cn1)c1cc(O[C@@H]2CCOC2)c2ccncc2n1 [27gB]	
			Cc1cc2nc(C(=O)Nc3ccc(F)cn3)cc(O[C@@H]3CCOC3)c2s1 [19cB]	IC50 (nM) (human mGlu5 [1]; [11]): inactive
3%	6.27	0.559 µM	N#Cc1csc(NC(=O)c2cc(O[C@@H]3CCOC3)c3sccc3n2)n1 [19aN]	
			N#Cc1cc(F)cc(-c2nc(-c3ccc(F)cn3)no2)c1 [AZD9272]	adverse effect in clinical trials [8]: psychosis-like symptoms
25%	< 5	> 10 µM	Cc1csc(NC(=O)c2cc(OC3CCOCC3)c3sccc3n2)n1 [22d]	
2%	7.27	0.055 µM	O=C(Nc1nc(CF)cs1)c1cc(O[C@@H]2CCOC2)c2sccc2n1 [19aL]	rat CLhep [2]: 41.8 mL/min/kg; human f u,plasma [3]: 0.016
6%	5.98	1.07 µM	O=C(Nc1cccc(F)n1)c1cc(O[C@@H]2CCOC2)c2sccc2n1 [19aC]	IC50 (human mGlu5 [1]; in μM, read-out: hmGlu5 IC50): 1.1 µM
12%	5.98	1.06 µM	Cn1ccc2c(O[C@@H]3CCOC3)cc(C(=O)Nc3ccc(F)cn3)nc21 [19dB]	
			O=C(c1ccc(OC(F)F)c(C#Cc2ccccn2)c1)N1Cc2cccnc2C1 [GRN-529]	glutathione conjugation to the alkyne [10]: extensive glutathione conjugation; toxicology finding ([10]; nonhuman primates, 8-week regulatory toxicology study): biliary epithelial hyperplasia; also recorded: hepatotoxicity observed
